Reference: publication doi:10.1101/2023.10.25.564053v1 (biorxiv, 2023)

Columns and labels:
[1] = biological target: GsAK (Geobacillus stearothermophilus, UniProt P27142); test: microscale thermophoresis, amine-labelled protein; format: binding
[2] = biological target: BsAK (Bacillus subtilis, UniProt P16304); test: microscale thermophoresis, amine-labelled protein; format: binding
Chain of BsAK (P16304 whole entry): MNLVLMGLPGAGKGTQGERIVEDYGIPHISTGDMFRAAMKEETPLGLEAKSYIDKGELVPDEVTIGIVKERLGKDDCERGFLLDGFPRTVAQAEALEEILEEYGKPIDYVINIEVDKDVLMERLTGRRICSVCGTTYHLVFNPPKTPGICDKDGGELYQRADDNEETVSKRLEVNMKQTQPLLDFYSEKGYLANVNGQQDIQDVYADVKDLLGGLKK

Chain of GsAK (P27142 whole entry): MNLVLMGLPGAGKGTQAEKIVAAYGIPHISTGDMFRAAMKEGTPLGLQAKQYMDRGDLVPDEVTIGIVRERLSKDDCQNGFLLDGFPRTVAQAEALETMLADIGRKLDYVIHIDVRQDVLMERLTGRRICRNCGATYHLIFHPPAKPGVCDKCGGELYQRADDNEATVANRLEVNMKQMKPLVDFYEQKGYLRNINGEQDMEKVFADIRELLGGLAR

Structure (SMILES): Nc1ncnc2c1ncn2[C@@H]1O[C@H](COP(=O)(O)OP(=O)(O)OP(=O)(O)OP(=O)(O)OP(=O)(O)OC[C@H]2O[C@@H](n3cnc4c(N)ncnc43)[C@H](O)[C@@H]2O)[C@@H](O)[C@H]1O [Ap5A]
- Kd [1]: 17 ± 5.7 nM
- Kd [2]: 25.1 ± 1.1 nM
